In patent publication US6492383B1, “Thienopyrimidine and thienopyridine derivatives useful as anticancer agents” (Pfizer Inc., priority 1998, dated 2002):
Counter-ions that a name gives are not always drawn.

| melting point | Structure (SMILES) |
| --- | --- |
| 178 to 191 °C | c1nc(Nc2ccc3[nH]ccc3c2)c2sc(-c3ccc(CNCCN4CCNCC4)cc3)cc2n1 [Example 23, (1H-Indol-5-yl)-(6-{4-[(2-piperazin-1-yl-ethylamino)-methyl]-phenyl}-thieno[3,2-d]pyrimidin-4-yl)-amine] |
| 174 to 175 °C | O=Cc1c[nH]c2ccc(Nc3ncnc4cc(-c5ccccc5)sc34)cc12 [Example 74, 5-(6-Phenyl-thieno[3,2-d]pyrimidin-4-ylamino)-1H-indole-3-carbaldehyde] |
| 181 to 185 °C | COc1ccc(Nc2ccc(Nc3nc(C)nc4cc(-c5ccccc5)sc34)cc2)cc1 [Example 72, N-(4-Methoxy-phenyl)-N′-(2-methyl-6-phenyl-thieno[3,2-d]pyrimidin-4-yl)-benzene-1,4-diamine] |
| 139 to 146 °C | O=C1CCCN1CCCNCc1ccc(-c2cc3ncnc(Nc4ccc5[nH]ccc5c4)c3s2)cc1 [Example 35, 1-(3-{4-[4-(1H-Indol-5-ylamino)-thieno[3,2-d]pyrimidin-6-yl]-benzylamino}-propyl)-pyrrolidin-2-one] |
| 193 to 205 °C | Fc1ccc(-c2cc3ncnc(Nc4ccc5[nH]ccc5c4)c3s2)cc1 [Example 4, [6-(4-Fluoro-phenyl)-thieno[3,2-d]pyrimidin-4-yl]-(1H-indol-5-yl)-amine] |
| 176 to 180 °C | c1nc(Nc2ccc3[nH]ccc3c2)c2sc(-c3ccc(CNC4CC4)cc3)cc2n1 [Example 40, [6-(4-Cyclopropylaminomethyl-phenyl)-thieno[3,2-d]pyrimidin-4-yl]-(1H-indol-5-yl)-amine] |
| 198 to 205 °C | NC(=O)C1CCN(Cc2ccc(-c3cc4ncnc(Nc5ccc6[nH]ccc6c5)c4s3)cc2)CC1 [Example 44, 1-{4-[4-(1H-Indol-5-ylamino)-thieno[3,2-d]pyrimidin-6-yl]-benzyl}-piperidine-4-carboxylic acid amide] |

More lines, now with the values behind:

| Structure (SMILES) | melting point |
| --- | --- |
| COc1ccc(-c2cc3ncnc(Nc4ccc5[nH]ccc5c4)c3s2)cc1 [Example 5, (1H-Indol-5-yl)-[6-(4-methoxy-phenyl)-thieno[3,2-d]pyrimidin-4-yl]-amine] | 150 to 180 °C |
| Cc1cccc(Nc2ncnc3cc(-c4ccccc4)sc23)c1 (as salt: HCl) [Example 92, (6-Phenyl-thieno[3,2-d]pyrimidin-4-yl)-m-tolyl-amine] | 238 to 241 °C |
| OCCN(CCO)Cc1ccc(-c2cc3ncnc(Nc4ccc5[nH]ccc5c4)c3s2)cc1 (as salt: mesylate) [Example 29, 2-((2-Hydroxy-ethyl)-{4-[4-(1H-indol-5-ylamino)-thieno[3,2-d]pyrimidin-6-yl]-benzyl}-amino)-ethanol] | 110 to 127 °C |
| c1ccc(-c2cc3ncnc(Nc4ccc5[nH]ccc5c4)c3s2)cc1 [Example 2, (1H-indol-5-yl)-(6-phenyl-thieno[3,2-d]pyrimidin-4-yl)-amine] | 255 to 258 °C (dec.) |
| c1ccc(-c2cc3ncnc(Nc4ccc(NCc5c[nH]c6ccccc56)cc4)c3s2)cc1 [Example 76, N-(1H-Indol-3-ylmethyl)-N′-(6-phenyl-thieno[3,2-d]pyrimidin-4-yl)-benzene-1,4-diamine] | 259 to 261 °C |
